Test results from PubChem BioAssay AID330 (DTP/NCI, 2004).
“And” between values parts separate entries of the source, which are not always exact repeats. Equal entries are not always repeated. Inconclusive results and toxic doses are left out. The calls were made as follows: active = survival T/C of 150% or more; inactive = T/C below 125% in these data.

Test system: P388 leukemia ip, CD2F1 mice, survival T/C
Test: NCI In Vivo Anticancer Drug Screen. Data for tumor model P388 Leukemia (intraperitoneal) in CD2F1 (CDF1) mice
Details: endpoint: median survival time, higher = longer survival
In short: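 Mice carrying the transplanted tumor received test compound or vehicle. Survival was recorded in each group, and the value is the treated-group measurement divided by that of the vehicle-treated control group.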

[1] = dose: 100.0 mg/kg/injection, schedule: Q01DX009 (ip), vehicle: saline with Tween-80
[2] = dose: 100.0 mg/kg/injection, schedule: Q01DX009 (ip), vehicle: saline
[3] = dose: 100.0 mg/kg/injection, schedule: Q04DX003 (ip), vehicle: saline with Tween-80
[4] = dose: 200.0 mg/kg/injection, schedule: Q01DX009 (ip), vehicle: saline
[5] = dose: 200.0 mg/kg/injection, schedule: Q04DX003 (ip), vehicle: saline with Tween-80
[6] = dose: 25.0 mg/kg/injection, schedule: Q04DX002 (ip), vehicle: saline with Tween-80
[7] = dose: 50.0 mg/kg/injection, schedule: Q04DX002 (ip), vehicle: saline with Tween-80
[8] = dose: 50.0 mg/kg/injection, schedule: Q01DX005 (ip), vehicle: saline with Tween-80
[9] = dose: 100.0 mg/kg/injection, schedule: Q01DX005 (ip), vehicle: saline with Tween-80
[10] = dose: 6.25 mg/kg/injection, schedule: Q01DX009 (ip), vehicle: saline with Tween-80
[11] = dose: 12.5 mg/kg/injection, schedule: Q01DX009 (ip), vehicle: saline with Tween-80
[12] = dose: 25.0 mg/kg/injection, schedule: Q01DX009 (ip), vehicle: saline with Tween-80
[13] = dose: 50.0 mg/kg/injection, schedule: Q01DX009 (ip), vehicle: saline with Tween-80
[14] = dose: 50.0 mg/kg/injection, schedule: Q01DX005 (ip), vehicle: Klucel (hydroxypropylcellulose) (HPC)
[15] = dose: 100.0 mg/kg/injection, schedule: Q01DX005 (ip), vehicle: Klucel (hydroxypropylcellulose) (HPC)
[16] = dose: 200.0 mg/kg/injection, schedule: Q01DX005 (ip), vehicle: Klucel (hydroxypropylcellulose) (HPC)
[17] = dose: 50.0 mg/kg/injection, schedule: Q01DX009 (ip), vehicle: saline
[18] = dose: 100.0 mg/kg/injection, schedule: Q04DX002 (ip), vehicle: Klucel (hydroxypropylcellulose) (HPC)
[19] = dose: 200.0 mg/kg/injection, schedule: Q04DX002 (ip), vehicle: Klucel (hydroxypropylcellulose) (HPC)
[20] = dose: 400.0 mg/kg/injection, schedule: Q04DX002 (ip), vehicle: Klucel (hydroxypropylcellulose) (HPC)
[21] = dose: 50.0 mg/kg/injection, schedule: Q04DX003 (ip), vehicle: saline with Tween-80
[22] = dose: 200.0 mg/kg/injection, schedule: Q01DX009 (ip), vehicle: saline with Tween-80
[23] = dose: 100.0 mg/kg/injection, schedule: Q04DX002 (ip), vehicle: saline with Tween-80

Measured: T/C

OC(CI)C(O)C(O)C(O)CI (stereo not drawn)
inactive: [1] 105 % of control and 115 % of control | [2] 98 % of control | [3] 100 % of control and 104 % of control | dose: 132.0 mg/kg/injection, schedule: Q01DX009 (ip), vehicle: saline with Tween-80 122 % of control | [4] 91 % of control | [5] 104 % of control and 113 % of control | dose: 400.0 mg/kg/injection, schedule: Q01DX009 (ip), vehicle: saline 105 % of control | dose: 400.0 mg/kg/injection, schedule: Q04DX003 (ip), vehicle: saline with Tween-80 100 % of control and 113 % of control | dose: 500.0 mg/kg/injection, schedule: Q01DX009 (ip), vehicle: saline 96 % of control

CCOC(=O)C(=CNc1cc(C(F)(F)F)ccc1N1CCOCC1)C(=O)OCC
inactive: dose: 50.0 mg/kg/injection, schedule: Q01DX009 (ip), vehicle: Klucel (hydroxypropylcellulose) (HPC) 97 % of control | dose: 100.0 mg/kg/injection, schedule: Q01DX009 (ip), vehicle: Klucel (hydroxypropylcellulose) (HPC) 100 % of control | dose: 200.0 mg/kg/injection, schedule: Q01DX009 (ip), vehicle: Klucel (hydroxypropylcellulose) (HPC) 100 % of control

COc1ccc(/C=C2\C(=O)C(c3ccccc3)N(c3ccccc3)C2=O)cc1 (stereo not drawn)
inactive: dose: 12.5 mg/kg/injection, schedule: Q04DX002 (ip), vehicle: saline with Tween-80 91 % of control | [6] 92 % of control | [7] 98 % of control

CCCCNC(=O)c1cc(NC(=O)c2ccc(C(=O)Nc3cc(C(=O)NCCCC)cc(C4N=CCN4)c3)cc2)cc(C2=NCCN2)c1 (stereo not drawn)
inactive: [8] 94 % of control | [9] 95 % of control

N=C(N)SCN1C(=O)c2ccccc2C1=O
inactive: [10] 114 % of control | [11] 107 % of control | [12] 123 % of control | [13] 122 % of control

COc1ccc(C(C)c2cc(C(C)(C)C)cc(C(C)(C)C)c2O)cc1 (stereo not drawn)
inactive: dose: 50.0 mg/kg/injection, schedule: Q01DX005 (ip), vehicle: distilled water + alcohol 100 % of control | dose: 100.0 mg/kg/injection, schedule: Q01DX005 (ip), vehicle: distilled water + alcohol 96 % of control | dose: 200.0 mg/kg/injection, schedule: Q01DX005 (ip), vehicle: distilled water + alcohol 94 % of control

CN1CC[S][Sn]([CH2][Sn]2([c]3ccccc3)[S]CCN(C)CC[S]2)([c]2ccccc2)[S]CC1
inactive: [14] 99 % of control | [15] 101 % of control | [16] 100 % of control

CC1=NN(c2ccc(S(=O)(=O)O)cc2)C(=O)C1N=Nc1ccc(-c2ccc(N=Nc3ccc(OS(=O)(=O)c4ccc(C)cc4)cc3)c(S(=O)(=O)O)c2)cc1 (stereo not drawn)
inactive: [17] 100 % of control | [2] 100 % of control | [4] 97 % of control

NNP(=O)(Oc1ccccc1)Oc1ccccc1
inactive: dose: 3.12 mg/kg/injection, schedule: Q01DX009 (ip), vehicle: saline with Tween-80 110 % of control | [10] 101 % of control | [11] 106 % of control | [12] 109 % of control and 110 % of control

C/C(=C\c1cc2c(cc1Cl)OCO2)[N+](=O)[O-]
inactive: [18] 104 % of control | [19] 102 % of control | [20] 118 % of control

CC1(C)COC(Cc2ccccc2)=N1
inactive: [13] 100 % of control | [21] 100 % of control | [1] 104 % of control | [3] 95 % of control | [22] 100 % of control | [5] 100 % of control

NC(=O)c1nc2c(N)nc(-c3ccccc3)nc2nc1N
inactive: dose: 150.0 mg/kg/injection, schedule: Q01DX009 (ip), vehicle: saline with Tween-80 94 % of control | dose: 300.0 mg/kg/injection, schedule: Q01DX009 (ip), vehicle: saline with Tween-80 95 % of control

NC(Cc1ccccc1)C(=O)CCl (stereo not drawn)
inactive: dose: 12.5 mg/kg/injection, schedule: Q01DX001 (ip), vehicle: saline 104 % of control | dose: 25.0 mg/kg/injection, schedule: Q01DX001 (ip), vehicle: saline 100 % of control

O=[N+]([O-])CC(OCCCCO)C(Cl)(Cl)Cl (stereo not drawn)
inactive: [13] 101 % of control | [1] 96 % of control | [22] 87 % of control

CN1CCN(S(=O)(=O)c2cnccc2N2CCN(CCO)CC2)CC1
inactive: [17] 108 % of control | [2] 97 % of control | [4] 97 % of control

C[Si](C)(C)CN(Cc1ccccc1)C(=O)c1ccccc1[N+](=O)[O-]
inactive: [8] 105 % of control | [9] 98 % of control | dose: 200.0 mg/kg/injection, schedule: Q01DX005 (ip), vehicle: saline with Tween-80 103 % of control

COc1ccccc1-n1c(SC)nccc1=O
inactive: [18] 100 % of control | [19] 100 % of control | [20] 94 % of control

O=C(NC12CC3CC(CC(C3)C1)C2)OCCN1CCN(CCCN2c3ccccc3Sc3ccc(C(F)(F)F)cc32)CC1
inactive: [6] 97 % of control | [7] 101 % of control | [23] 104 % of control and 113 % of control

COC(=O)c1cc2c(s1)CCC/C(Cl)=C(/C=O)C2
inactive: [10] 96 % of control | dose: 6.25 mg/kg/injection, schedule: Q01DX009 (ip), vehicle: saline 97 % of control | [11] 104 % of control and 94 % of control | dose: 12.5 mg/kg/injection, schedule: Q01DX009 (ip), vehicle: saline 91 % of control | [12] 106 % of control and 95 % of control | dose: 25.0 mg/kg/injection, schedule: Q01DX009 (ip), vehicle: saline 97 % of control | [13] 100 % of control and 107 % of control | [17] 101 % of control and 120 % of control | [2] 103 % of control

CN(C=O)c1cc2c3c(c1)CCCN3CCC2
inactive: [11] 109 % of control | dose: 12.5 mg/kg/injection, schedule: Q04DX003 (ip), vehicle: saline with Tween-80 100 % of control | [12] 104 % of control | dose: 25.0 mg/kg/injection, schedule: Q04DX003 (ip), vehicle: saline with Tween-80 90 % of control | [13] 109 % of control | [21] 95 % of control

CN1OC2(CCCCC2)n2c(=O)c3ccccc3c(=O)n2C1c1ccccc1 (stereo not drawn)
inactive: [17] 100 % of control | [2] 100 % of control | [4] 95 % of control

Clc1c2ccccc2c(Cl)c2ccccc12
inactive: [23] 97 % of control | dose: 200.0 mg/kg/injection, schedule: Q04DX002 (ip), vehicle: saline with Tween-80 103 % of control | dose: 400.0 mg/kg/injection, schedule: Q04DX002 (ip), vehicle: saline with Tween-80 96 % of control

Nc1nc2ccccc2n1C(=O)C(F)(F)F
inactive: dose: 100.0 mg/kg/injection, schedule: Q01DX001 (ip), vehicle: Klucel (hydroxypropylcellulose) (HPC) 98 % of control | dose: 200.0 mg/kg/injection, schedule: Q01DX001 (ip), vehicle: Klucel (hydroxypropylcellulose) (HPC) 116 % of control

O=C(NC(Cc1ccc(Br)cc1)C(=O)O)c1ccc(Cl)cc1 (stereo not drawn)
inactive: [14] 100 % of control | [15] 100 % of control | [16] 102 % of control

Fc1ccc2nc3ccccc3c(SCCCCCCSc3c4ccccc4nc4ccc(F)cc34)c2c1
inactive: dose: 60.0 mg/kg/injection, schedule: Q01DX005 (ip), vehicle: Klucel (hydroxypropylcellulose) (HPC) 96 % of control | dose: 120.0 mg/kg/injection, schedule: Q01DX005 (ip), vehicle: Klucel (hydroxypropylcellulose) (HPC) 90 % of control

CS(=O)(=O)OCCOc1ccc(-c2nc3ccccc3[nH]2)cc1
inactive: dose: 100.0 mg/kg/injection, schedule: Q01DX001 (ip), vehicle: saline with Tween-80 90 % of control | dose: 200.0 mg/kg/injection, schedule: Q01DX001 (ip), vehicle: saline with Tween-80 98 % of control | dose: 400.0 mg/kg/injection, schedule: Q01DX001 (ip), vehicle: saline with Tween-80 99 % of control
